From the NIST ThermoML archive (doi:10.1016/j.fluid.2015.10.034)

Conditions: Liquid, Frequency=8 MHz, Pulse-echo method

[2H]O[2H] [water-d2]
Conditions	speed of sound [m/s]
278.21 K, 150.19 kPa	1326
278.21 K, 152.01 kPa	1326
278.21 K, 5021.9 kPa	1332.5
278.21 K, 5025.1 kPa	1332.5
278.21 K, 9983.4 kPa	1339.3
278.21 K, 9986 kPa	1339.3
278.21 K, 15113 kPa	1346.4
278.21 K, 15117 kPa	1346.5
278.21 K, 20109 kPa	1353.6
278.21 K, 20152 kPa	1353.7
278.22 K, 2465.2 kPa	1329.1
278.22 K, 2465.6 kPa	1329.1
283.21 K, 154.9 kPa	1347.8
283.21 K, 156.96 kPa	1347.8
283.21 K, 2494.8 kPa	1351.1
283.21 K, 2498 kPa	1351.1
283.21 K, 5043.1 kPa	1354.6
283.21 K, 5043.6 kPa	1354.6
283.21 K, 9942.4 kPa	1361.6
283.21 K, 9943.6 kPa	1361.6
283.21 K, 15142 kPa	1369
283.21 K, 15143 kPa	1369.1
283.21 K, 20195 kPa	1376.4
283.21 K, 20198 kPa	1376.4
293.2 K, 179.82 kPa	1384.1
293.2 K, 181.19 kPa	1384.1
293.2 K, 2473.1 kPa	1387.5
293.2 K, 2473.2 kPa	1387.5
293.2 K, 5119.8 kPa	1391.4
293.2 K, 5125.6 kPa	1391.4
293.2 K, 10078 kPa	1398.8
293.2 K, 10086 kPa	1398.8
293.2 K, 15047 kPa	1406.2
293.2 K, 15052 kPa	1406.2
293.2 K, 20333 kPa	1414.2
293.2 K, 20361 kPa	1414.2
313.2 K, 109.61 kPa	1432.5
313.2 K, 109.88 kPa	1432.5
313.2 K, 2458.2 kPa	1436.3
313.2 K, 2468.5 kPa	1436.3
313.2 K, 5110.5 kPa	1440.5
313.2 K, 5110.8 kPa	1440.5
313.2 K, 15060 kPa	1456.3
313.2 K, 20267 kPa	1464.5
313.2 K, 20276 kPa	1464.6
333.2 K, 195.58 kPa	1456.2
333.2 K, 211.29 kPa	1456.2
333.2 K, 2499.2 kPa	1460.1
333.2 K, 2499.6 kPa	1460.1
333.2 K, 5054.7 kPa	1464.5
333.2 K, 5055 kPa	1464.5
333.2 K, 10044 kPa	1473
333.2 K, 10071 kPa	1473.1
333.2 K, 20122 kPa	1490
333.2 K, 20126 kPa	1490
353.2 K, 142.15 kPa	1460.6
353.2 K, 144.59 kPa	1460.6
353.2 K, 2522.3 kPa	1465.1
353.2 K, 2528 kPa	1465
353.2 K, 5032.1 kPa	1469.7
353.2 K, 5034.1 kPa	1469.7
353.2 K, 10091 kPa	1479
353.2 K, 10094 kPa	1479.1
353.2 K, 15060 kPa	1488
353.2 K, 15062 kPa	1488.1
